From ChEMBL document CHEMBL1201862, “PubChem BioAssay data set” (2004)
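Five compound concentrations were applied to cells in 96-well plates for 48 hours; endpoints were derived by simple linear interpolation of the resulting dose-response curve. GI50 marks 50% less growth.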 Active and inactive are the calls of the source. No stated cut-off is given here; in the data, active = GI50 up to about 1.1 µM and inactive = higher.

Legend:
Test in all cases: NCI tumour cell line growth inhibition, 48 h
[1] = system: MDA-N
[2] = system: KM12
[3] = system: K562
[4] = system: ACHN
[5] = system: Malme-3M
[6] = system: OVCAR-5
[7] = system: NCI-H522
[8] = system: NCI-H460
[9] = system: RXF 393
[10] = system: HCT-116
[11] = system: LXFL 529
[12] = system: HOP-18
[13] = system: SN12C
[14] = system: SF-539
[15] = system: SK-MEL-2
[16] = system: HOP-92
[17] = system: IGROV-1
[18] = system: CCRF-CEM
[19] = system: UO-31
[20] = system: DU-145
[21] = system: RPMI-8226
[22] = system: COLO 205
[23] = system: A549
[24] = system: PC-3
[25] = system: SNB-19
[26] = system: SK-MEL-5
[27] = system: SF-295
[28] = system: MDA-MB-435
[29] = system: SF-268
[30] = system: LOX IMVI
[31] = system: OVCAR-3
[32] = system: EKVX
[33] = system: XF498
[34] = system: NCI/ADR-RES
[35] = system: HT-29
[36] = system: SNB-75
[37] = system: DMS-114
[38] = system: M19-MEL
[39] = system: BT-549
[40] = system: U-251
[41] = system: NCI-H23
[42] = system: MCF7
[43] = system: OVCAR-8
[44] = system: SR
[45] = system: KM-20L2
[46] = system: HCT-15
[47] = system: UACC-62
[48] = system: SK-OV-3
[49] = system: RXF 631
[50] = system: DMS-273
[51] = system: M14
[52] = system: TK-10
[53] = system: MOLT-4
[54] = system: SNB-78
[55] = system: DLD-1
[56] = system: MDA-MB-231
[57] = system: SW-620
[58] = system: T47D
[59] = system: OVCAR-4
[60] = system: Hs-578T
[61] = system: A498
[62] = system: 786-0
[63] = system: UACC-257
[64] = system: CAKI-1
[65] = system: HL-60
[66] = system: SK-MEL-28
[67] = system: NCI-H226
[68] = system: HOP-62
[69] = system: HCC 2998

C[N+](C)(C)CC1CCCC(C[N+](C)(C)C)C1=O (centres undefined)
GI50 [1]: 3490 nM (inactive)
GI50 [2]: 4660 nM (inactive)
GI50 [3]: 72.4 nM (active)
GI50 [4]: 845 nM (active)
GI50 [5]: 212 nM (active)
GI50 [6]: 3520 nM (inactive)
GI50 [7]: 447 nM (active)
GI50 [8]: 16300 nM (inactive)
GI50 [9]: 1690 nM (inactive)
GI50 [10]: 804 nM (active)
GI50 [11]: 177 nM (active)
GI50 [12]: 494 nM (active)
GI50 [13]: 1190 nM (inactive)
GI50 [14]: 4790 nM (inactive)
GI50 [15]: 1900 nM (inactive)
GI50 [16]: 441 nM (active)
GI50 [17]: 5240 nM (inactive)
GI50 [18]: 100 nM (active)
GI50 [19]: 1670 nM (inactive)
GI50 [20]: 5750 nM (inactive)
GI50 [21]: 57.9 nM (active)
GI50 [22]: 374 nM (active)
GI50 [23]: 14800 nM (inactive)
GI50 [24]: 4610 nM (inactive)
GI50 [25]: 19000 nM (inactive)
GI50 [26]: 5160 nM (inactive)
GI50 [27]: 29700 nM (inactive)
GI50 [28]: 1800 nM (inactive)
GI50 [29]: 7310 nM (inactive)
GI50 [30]: 1230 nM (inactive)
GI50 [31]: 703 nM (active)
GI50 [32]: 1580 nM (inactive)
GI50 [33]: 411 nM (active)
GI50 [34]: 2590 nM (inactive)
GI50 [35]: 1300 nM (inactive)
GI50 [36]: 4700 nM (inactive)
GI50 [37]: 1770 nM (inactive)
GI50 [38]: 879 nM (active)
GI50 [39]: 1580 nM (inactive)
GI50 [40]: 3350 nM (inactive)
GI50 [41]: 2420 nM (inactive)
GI50 [42]: 506 nM (active)
GI50 [43]: 869 nM (active)
GI50 [44]: 158 nM (active)
GI50 [45]: 855 nM (active)
GI50 [46]: 308 nM
GI50 [47]: 4660 nM (inactive)
GI50 [48]: 13700 nM (inactive)
GI50 [49]: 1960 nM (inactive)
GI50 [50]: 3400 nM (inactive)
GI50 [51]: 879 nM (active)
GI50 [52]: 1210 nM (inactive)
GI50 [53]: 133 nM (active)
GI50 [54]: 2390 nM (inactive)
GI50 [55]: 105 nM (active)
GI50 [56]: 2010 nM (inactive)
GI50 [57]: 72.6 nM (active)
GI50 [58]: 1090 nM (active)
GI50 [59]: 641 nM (active)
GI50 [60]: 13000 nM (inactive)
GI50 [61]: 9620 nM (inactive)
GI50 [62]: 661 nM (active)
GI50 [63]: 805 nM (active)
GI50 [64]: 984 nM (active)
GI50 [65]: 272 nM (active)
GI50 [66]: 1850 nM (inactive)
GI50 [67]: 15600 nM (inactive)
GI50 [68]: 23300 nM (inactive)
GI50 [69]: 513 nM (active)
